Source: patent publication US7084163B2, “Heterocyclic carboxamides and their use as fungicides” (Bayer Cropscience S.A., priority 2001, dated 2006)

Experiments:
Drechslera teres = experiment: In vivo test on Drechslera teres (barley net blotch), preventive spray; settings: Pyrenophora teres, 288 h; dose of 500 g/ha; barley plants (Express variety); contaminated 24 hours after treatment; grading 12 days after contamination vs control plants; read-out: good (at least 50%) protection
Experimental: (§1) An aqueous suspension, at a concentration of 1.5%, of the active material. tested is obtained by grinding it finely in a formulation of concentrated suspension type. This aqueous suspension is then diluted in water so as to obtain the desired active material concentration. Barley plants (Express variety) in starter cups, sown on a 50/50 peat soil-pozzolana substrate and grown at 12° C., are treated at the 1-leaf stage (10 cm tall) by spraying with the aqueous suspension described above. Plants, used as controls, are treated with an aqueous solution not containing the active material.
After 24 hours, the plants are contaminated by spraying them with an aqueous suspension of Dreschslera teres spores (12,000 spores per mL). The spores are collected from a 12-day-old culture. The contaminated wheat plants are incubated for 24 hours at about 20° C. and at 100% relative humidity, and then for 12 days at 80% relative humidity.
Grading is carried out 12 days after the contamination, in comparison with the control plants. Under these conditions, good (at least 50%) protection is observed, at a dose of 500 g/ha, with the compounds described as example: 9, 13, 14, 15, 18, 20, 21, 22, 24, 26, 27, 30, 31, 32, 33, 34, 35, 36, 37, 41, 43, 45, 47, 49, 62, 69, 70, 72.

Puccinia recondita = experiment: In vivo test on Puccinia recondita (wheat brown rust), preventive spray; settings: 240 h, dose of 500 g/ha, wheat plants (Scipion variety), contaminated 24 hours after treatment, grading 10 days after contamination vs control plants, read-out: good (at least 50%) protection
Experimental: (§2) An aqueous suspension, at a concentration of 1.5%, of the active material tested is obtained by grinding it finely in a formulation of concentrated suspension type, This aqueous suspension is then diluted in water so as to obtain the desired active material concentration. Wheat plants (Scipion variety) in starter cups, sown on a 50/50 peat soil-pozzolana substrate and grown at 12° C., are treated at the 1-leaf stage (10 cm tall) by spraying with the aqueous suspension described above. Plants, used as controls, are treated with an aqueous solution not containing the active material.
After 24 hours, the plants are contaminated by spraying them with an aqueous suspension of Puccinia recondita spores (150,000 spores per mL). The contaminated wheat plants are incubated for 24 hours at about 20° C. and at 100% relative humidity, and then for 10 days at 70% relative humidity.
Grading is carried out 10 days after the contamination, in comparison with the control plants. Under these conditions, good (at least 50%) protection is observed, at a dose of 500 g/ha, with the following compounds described as example: 6, 10, 11, 12, 13, 14, 15, 28, 29, 30, 31, 34, 37, 42, 45, 46, 50, 51, 52, 62, 72.

Septoria tritici = experiment: In vivo test on Septoria tritici (leaf spot of wheat), preventive spray; settings: Zymoseptoria tritici; dose of 500 g/ha; wheat plants (Scipion variety); contaminated 24 hours after treatment; grading 15 to 20 days after contamination vs control plants; read-out: good (at least 50%) protection
Experimental: as §2, with “type.” for “type,”
After 24 hours, the plants are contaminated by spraying them with an aqueous suspension of Septoria tritici spores (500,000 spores per mL). The spores are collected from a 15-day-old culture and are suspended in a nutrient solution composed of: • 1.5 g/L of gelatine • 0.5 g/L of sodium oleate • 24 g/L of PDB
The contaminated wheat plants are incubated for 72 hours at about 20° C. and at 100% relative humidity, and then for 15 days at 80% relative humidity.

[1] = system: Erisyphe graminis f. sp. tritici; experiment: In vivo test on Erisyphe graminis f. sp. tritici (powdery mildew of wheat), preventive spray; settings: Triticum aestivum; dose of 500 g/ha; wheat plants (Audace variety); contaminated 24 hours after treatment; grading 7 to 14 days after contamination vs control plants; read-out: good (at least 50%) or total protection
Experimental: An aqueous suspension, at a concentration of 1.5%, of the active material tested is obtained by grinding it finely in a formulation of concentrated suspension type. This aqueous suspension is then diluted in water so as to obtain the desired active material concentration. Wheat plants (Audace variety) in starter cups, sown on 50/50 peat soil-pozzulana substrate and grown at 12° C., are treated at the 1-leaf stage (10 cm tall) by spraying with the aqueous suspension described above. Plants, used as controls, are treated with an aqueous solution not containing the active material. After 24 hours, the plants are contaminated by dusting them with Erisyphe graminis f. sp. tritici spores, the dusting being carried out using diseased plants.

Rhynchosporium secalis = experiment: In vivo test on Rhynchosporium secalis (barley leaf scald), preventive spray; settings: dose of 500 g/ha; barley plants (Express or Barrack variety); contaminated 24 hours after treatment; grading 12/14 days after contamination vs control plants
Experimental: as §1, with “the active material tested is” for “the active material. tested is”, “plants (Express or Barrack variety) in” for “plants (Express variety) in”
After 24 hours, the plants are contaminated by spraying them with an aqueous suspension of Rhynchosporium secalis spores (800,000 spores per mL). The contaminated wheat plants are incubated for 48 hours at about 20° C. and at 100% relative humidity, and then for 12/14 days at 80% relative humidity.
Grading is carried out 12/14 days after the contamination, in comparison with the control plants. Under these conditions, good (at least 50%) protection is observed, at a dose of 500 g/ha, with the following compound described as example: 32.

For `CC(C)N1CC(C(=O)Nc2ccc(Oc3ccccc3)cc2)=C(O)C1=O` [compound 72, N-4-(phenoxy)phenyl-(1-N-isopropyl-4-hydroxy-5-dioxo-2,5-dihydro-1H)-pyrrol-3-carboxamide], the pest or weed control at 500 g/ha (Drechslera teres) was ≥ 50%, the pest or weed control at 500 g/ha (Puccinia recondita) was ≥ 50% and the pest or weed control at 500 g/ha (Septoria tritici) was ≥ 50%.

With `CCOC(=O)c1c(OC)c(C(=O)Nc2ccc(Oc3ccc(C(F)(F)F)cc3)cc2)cn1C` [compound 12, 1-methyl-2-ethoxycarbonyl-3-methoxy-1H-N-para-[4-(trifluoromethyl)phenoxy]phenyl-pyrrole-4-carboxamide] the pest or weed control at 500 g/ha [1] was ≥ 50% and the pest or weed control at 500 g/ha (Puccinia recondita) was ≥ 50%.

With `COc1c(C(=O)Nc2ccc(Oc3ccc(C(F)(F)F)cc3)cc2)cn(C)c1N` [compound 14, 1-methyl-2-amino-3-methoxy-1H-N-para-[4-(trifluoromethyl)phenoxy]phenyl-pyrrole-4-carboxamide] the pest or weed control at 500 g/ha (Drechslera teres) was ≥ 50%, the pest or weed control at 500 g/ha [1] was ≥ 50% and the pest or weed control at 500 g/ha (Puccinia recondita) was ≥ 50%.

For `COc1c(C(=O)Nc2ccc(Oc3ccc(C(F)(F)F)cc3)cc2)cn(C)c1C(=O)O` [compound 13, 1-methyl-2-hydroxycarbonyl-3-methoxy-1H-N-para-[4-(trifluoromethyl)phyenoxy]phenyl-pyrrole-4-carboxamide], the pest or weed control at 500 g/ha (Drechslera teres) was ≥ 50%, the pest or weed control at 500 g/ha [1] was ≥ 50% and the pest or weed control at 500 g/ha (Puccinia recondita) was ≥ 50%.

For `Nc1cncc(C(=O)Nc2ccc(Oc3cccc(C(F)(F)F)c3)cc2)c1O` [compound 45, 5-amino-4-hydroxy-N-para-[3-(trifluoromethyl)phenoxy]phenyl nicotinamide], the pest or weed control at 500 g/ha (Drechslera teres) was ≥ 50%, the pest or weed control at 500 g/ha [1] was ≥ 50% and the pest or weed control at 500 g/ha (Puccinia recondita) was ≥ 50%. For the same molecule, the pest or weed control at 500 g/ha (Septoria tritici) was ≥ 50%.

With `Nc1cc(C(=O)Nc2ccc(Oc3ccc(C(F)(F)F)cc3)cc2)ns1` [compound 42, 5-Amino-N-para-[4-(trifluoromethyl)phenoxy]phenyl-isothiazole-3-carboxamide] the pest or weed control at 500 g/ha [1] was ≥ 50%, the pest or weed control at 500 g/ha (Puccinia recondita) was ≥ 50% and the pest or weed control at 500 g/ha (Septoria tritici) was ≥ 50%.

In the case of `COC(=O)c1onc(C(=O)Nc2ccc(Oc3ccc(C(F)(F)F)cc3)cc2)c1OC` [compound 39], the pest or weed control at 500 g/ha (Septoria tritici) is reported as ≥ 50%.

With `Cc1nc(C)c(-n2cccc2)c(O)c1C(=O)Nc1ccc(OC(F)(F)C(F)F)cc1` [compound 55, 2,6-dimethyl-5-pyrrol-1-yl-4-hydroxy-N-para-(1,1,2,2 tetrafluoroethoxy)phenyl nicotinamide] the pest or weed control at 500 g/ha [1] was ≥ 50%.

In the case of `COC(=O)c1cncc(C(=O)Nc2ccc(Oc3ccc(C(F)(F)F)c(Cl)c3)cc2)c1OC` [compound 49, 5-methoxycarbonyl-4-methoxy-N-para-[3-chloro-4-(trifluoromethyl)phenoxy]phenyl nicotinamide], the pest or weed control at 500 g/ha (Drechslera teres) is reported as ≥ 50%, the pest or weed control at 500 g/ha [1] is reported as ≥ 50% and the pest or weed control at 500 g/ha (Septoria tritici) is reported as ≥ 50%.

With `CCCCOc1ccc(NC(=O)c2c(O)c(N)cn2C)cc1` [compound 9, 1-Methyl-4-amino-3-hydroxy-1H-N-(4-butoxy-phenyl)pyrrole-2-carboxamide] the pest or weed control at 500 g/ha (Drechslera teres) was ≥ 50% and the pest or weed control at 500 g/ha (Septoria tritici) was ≥ 50%.

In the case of `CCOC(=O)c1c(O)c(C(=O)Nc2ccc(Oc3ccc(C(F)(F)F)cc3)cc2)cn1C` [compound 15, 1-methyl-2-ethoxycarbonyl-3-hydroxy-1H-N-para-[4-(trifluoromethyl)phenoxy]phenyl-pyrrole-4-carboxamide], the pest or weed control at 500 g/ha (Drechslera teres) is reported as ≥ 50%, the pest or weed control at 500 g/ha [1] is reported as ≥ 50% and the pest or weed control at 500 g/ha (Puccinia recondita) is reported as ≥ 50%. The pest or weed control at 500 g/ha (Septoria tritici) was ≥ 50%.

In the case of `COC(=O)Nc1noc(C(=O)Nc2ccc(Oc3ccc(C(F)(F)F)cc3)cc2)c1OC` [compound 28], the pest or weed control at 500 g/ha [1] is reported as ≥ 50% and the pest or weed control at 500 g/ha (Puccinia recondita) is reported as ≥ 50%.

With `Nc1noc(C(=O)Nc2ccc(Oc3ccc(C(F)(F)F)cc3)cc2)c1O` [compound 32, 3-Amino4-hydroxy-N-para-[4-(trifluoromethyl)phenoxy]phenylisoxazole-5-carboxamide] the pest or weed control at 500 g/ha (Drechslera teres) was ≥ 50%, the pest or weed control at 500 g/ha [1] was ≥ 50% and the “good (at least 50%) protection” value (Rhynchosporium secalis) was “at least 50%”. For the same molecule, the pest or weed control at 500 g/ha (Septoria tritici) was ≥ 50%.

With `C=CCOC(=O)Nc1cn(C)c(C(=O)Nc2ccc(Oc3ccc(C(F)(F)F)cc3)cc2)c1OC` [compound 5, 1-Methyl-4-[(allyloxycarbonyl)amino]-3-methoxy-1H—N-para-[4-(trifluoromethyl)phenoxy]phenyl-pyrrole-2-carboxamide] the pest or weed control at 500 g/ha [1] was ≥ 50%.

With `Cn1nc(C(=O)Nc2ccc(Oc3cccc(C(F)(F)F)c3)cc2)c(O)c1N` [compound 44, 1-Methyl-4-hydroxy-5-amino-N-para-[3-(trifluoromethyl)phenoxy]phenyl pyrazole-3-carboxamide] the pest or weed control at 500 g/ha [1] was ≥ 50%.

With `Nc1nccc(C(=O)Nc2ccc(Oc3ccc(C(F)(F)F)cc3)cc2)c1O` [compound 19, [4-(Trifluoromethyl)phenoxy]anilino-(2-amino-3-hydroxy)pyridyl-4-carboxamide] the pest or weed control at 500 g/ha [1] was ≥ 50%.

In the case of `CCCCOc1ccc(NC(=O)c2occc(=O)c2O)cc1` [compound 59, N-(4-Butyloxy-phenyl)-2-(3-hydroxy-γ-pyranone)-carboxamide], the pest or weed control at 500 g/ha [1] is reported as ≥ 50%, the melting point is reported as 203 to 204 °C and the pest or weed control at 500 g/ha (Septoria tritici) is reported as ≥ 50%.

In the case of `COc1c(C(N)=O)cncc1C(=O)Nc1ccc(Oc2ccc(C(F)(F)F)c(Cl)c2)cc1` [compound 50, 5-aminocarbonyl-4-methoxy-N-para-[3-chloro-4-(trifluoromethyl)phenoxy]phenyl nicotinamide], the pest or weed control at 500 g/ha (Puccinia recondita) is reported as ≥ 50% and the pest or weed control at 500 g/ha (Septoria tritici) is reported as ≥ 50%.

In the case of `CC(C)N1CC(C(=O)Nc2ccc(Oc3ccc(C(F)(F)F)cc3)cc2)=C(O)C1=O` [compound 73, N-(4-(4-Trifluormethyl)phenoxy)phenyl-[(1-isopropyl-4-hydroxy-5-dioxo-2,5-dihydro-1H)-pyrrol]-3-carboxamide], the pest or weed control at 500 g/ha [1] is reported as ≥ 50%.
